Data as given in US10618918B2, “Substituted boronic acids as antimicrobials” (priority 2015, dated 2020).
Like-named read-outs stand apart in the source and are kept apart here.

Tests used:
KP1009 CTX-M-15 = test: Aztreonam potentiation (MPC@4), strain KP1009 CTX-M-15; details: minimum BLI concentration inhibiting growth with aztreonam 4 μg/mL; tested up to 40 μg/mL
KP1005 CTX-M-14 = test: Tigemonam potentiation (MPC@4), strain KP1005 CTX-M-14
ec302 TEM-10 = test: Aztreonam potentiation (MPC@4), strain ec302 TEM-10; details: minimum BLI concentration inhibiting growth with aztreonam 4 μg/mL; tested up to 40 μg/mL
ECL1002 = test: Aztreonam potentiation (MPC@4), strain ECL1002; details: minimum BLI concentration inhibiting growth with aztreonam 4 μg/mL; tested up to 40 μg/mL
EC1010 CMY-6 = test: Aztreonam potentiation (MPC@4), strain EC1010 CMY-6
KP1004 KPC-2 [1] = test: Aztreonam potentiation (MPC@4), strain KP1004 KPC-2
AB1054 OXA-23 = test: Meropenem potentiation (MPC@8), strain AB1054 OXA-23; assay type: cell-based, Acinetobacter baumannii
KP1004 KPC-2 [2] = test: Biapenem potentiation (MPC@1), strain KP1004 KPC-2; assay type: cell-based; details: minimum BLI concentration inhibiting growth with biapenem 1 μg/mL; tested up to 40 μg/mL
Procedure: (§1) Biapenem was present in the test medium at 1 μg/mL. […] Table 3 summarizes the BLI potency of biapenem potentiation (MPC@1) for two strains overexpressing class A (KPC) and class D (OXA-48) carbapenemases. Biapenem MIC for each strain is also shown.

PAM1032/KPC-2 = test: Biapenem potentiation MPC64 in PAM1032/KPC-2 (efflux proficient, overexpresses MexAB-OprM); assay type: cell-based, Pseudomonas aeruginosa
Procedure: (§2) Efflux of BLIs from Pseudomonas aeruginosa by the MexAB-OprM efflux pump was also evaluated. The plasmid expressing the gene encoding KPC-2 was introduced into two strains of P. aeruginosa, PAM1032 and PAM 1154 that overexpressed or lacked MexAB-OprM, respectively. […] Potency of BLIs to potentiate biapenem in these strains was determined.

AB1053 OXA-72 = test: Meropenem potentiation (MPC@8), strain AB1053 OXA-72; assay type: cell-based, Acinetobacter baumannii; details: minimum BLI concentration inhibiting growth with meropenem 8 μg/mL; tested up to 20 μg/mL
ec308 SHV-5 = test: Aztreonam potentiation (MPC@4), strain ec308 SHV-5; details: minimum BLI concentration inhibiting growth with aztreonam 4 μg/mL; tested up to 40 μg/mL
KP1010 SHV-12 = test: Aztreonam potentiation (MPC@4), strain KP1010 SHV-12
KP1086 OXA-48 = test: Biapenem potentiation (MPC@1), strain KP1086 OXA-48; assay type: cell-based; details: minimum BLI concentration inhibiting growth with biapenem 1 μg/mL; tested up to 40 μg/mL
Procedure: as §1

[3] = target: purified class A, C and D enzymes (β-lactamases) (Escherichia coli, UniProt Q9L5C7); test: biochemical; assay type: biochemical
[4] = target: purified class A, C and D enzymes (β-lactamases) (Enterobacter cloacae, UniProt P05364); test: biochemical; assay type: biochemical
[5] = target: T1, purified class A, C and D enzymes (β-lactamases) (UniProt P0AD64, L31Q/G234S/E235K, species not given); test: biochemical; assay type: biochemical; details: purified SHV-12; nitrocefin (NCF) as reporter substrate; read-out: Ki (SHV-12, NCF)
T1 construct: Ki (SHV-12, NCF), uM; other: purified SHV-12; nitrocefin (NCF) as reporter substrate
T1 sequence (P0AD64 1-286 L31Q/G234S/E235K): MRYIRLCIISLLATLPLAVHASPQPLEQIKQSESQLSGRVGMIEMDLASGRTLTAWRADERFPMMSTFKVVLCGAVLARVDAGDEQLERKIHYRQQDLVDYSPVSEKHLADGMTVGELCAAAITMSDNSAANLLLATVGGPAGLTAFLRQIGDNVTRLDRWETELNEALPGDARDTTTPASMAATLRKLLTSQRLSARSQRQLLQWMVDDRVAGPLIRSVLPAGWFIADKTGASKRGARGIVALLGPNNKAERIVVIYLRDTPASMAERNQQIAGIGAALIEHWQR

[6] = target: purified class A, C and D enzymes (β-lactamases) (Klebsiella pneumoniae, UniProt Q9F663); test: biochemical; assay type: biochemical
[7] = target: purified class A, C and D enzymes (β-lactamases) (Klebsiella pneumoniae, UniProt Q6XEC0); test: biochemical; assay type: biochemical
[8] = target: T2, purified class A, C and D enzymes (β-lactamases) (Acinetobacter baumannii, UniProt Q9L4P2); test: biochemical; assay type: biochemical; details: purified OXA-23; nitrocefin (NCF) as reporter substrate
T2 construct: rows headed: Ki (OXA-23, NCF), uM; other: purified OXA-23; nitrocefin (NCF) as reporter substrate

PAM1154/KPC-2 = test: Biapenem potentiation MPC64 in PAM1154/KPC-2 (efflux deficient, lacks MexAB-OprM); assay type: cell-based, Pseudomonas aeruginosa
Procedure: as §2

[9] = target: T3, purified class A, C and D enzymes (β-lactamases) (Pseudomonas aeruginosa, UniProt P24735); test: biochemical; assay type: biochemical
T3 construct: rows headed: Ki (Pa-AmpC, NCF), uM; other: purified Pa-AmpC; nitrocefin (NCF) as reporter substrate

biochemical = assay type: biochemical
[10] = minimum BLI concentration inhibiting growth with aztreonam 4 μg/mL, tested up to 40 μg/mL

purified class A, C and D enzymes (β-lactamases) (Enterobacter cloacae, UniProt P05364), sequence (P05364 21-381): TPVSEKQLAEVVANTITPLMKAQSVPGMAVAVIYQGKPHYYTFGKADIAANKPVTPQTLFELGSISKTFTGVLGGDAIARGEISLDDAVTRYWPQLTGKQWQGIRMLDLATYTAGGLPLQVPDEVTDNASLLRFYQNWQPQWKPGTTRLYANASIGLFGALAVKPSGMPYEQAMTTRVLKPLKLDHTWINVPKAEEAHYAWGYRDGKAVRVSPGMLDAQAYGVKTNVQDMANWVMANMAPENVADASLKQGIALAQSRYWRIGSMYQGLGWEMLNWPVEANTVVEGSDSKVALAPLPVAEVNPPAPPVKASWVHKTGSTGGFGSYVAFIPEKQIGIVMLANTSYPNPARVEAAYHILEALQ
purified class A, C and D enzymes (β-lactamases) (Escherichia coli, UniProt Q9L5C7), sequence (Q9L5C7 entry or part of it): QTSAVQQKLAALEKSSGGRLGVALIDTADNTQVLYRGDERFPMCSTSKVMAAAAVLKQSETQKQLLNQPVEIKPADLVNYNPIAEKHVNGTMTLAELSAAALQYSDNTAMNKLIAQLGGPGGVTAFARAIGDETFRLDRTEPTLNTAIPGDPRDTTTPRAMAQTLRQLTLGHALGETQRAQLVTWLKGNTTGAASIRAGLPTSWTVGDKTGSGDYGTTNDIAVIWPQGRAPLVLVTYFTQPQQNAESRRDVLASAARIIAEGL
T2 sequence (Q9L4P2 whole entry): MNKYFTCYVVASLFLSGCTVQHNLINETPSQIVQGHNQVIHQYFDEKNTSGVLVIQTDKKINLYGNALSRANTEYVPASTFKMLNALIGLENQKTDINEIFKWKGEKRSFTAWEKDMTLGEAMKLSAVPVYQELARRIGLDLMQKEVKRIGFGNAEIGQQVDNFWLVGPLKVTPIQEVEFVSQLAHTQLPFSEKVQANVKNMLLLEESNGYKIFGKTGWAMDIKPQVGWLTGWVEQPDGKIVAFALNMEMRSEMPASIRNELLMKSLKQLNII
T3 sequence (P24735 whole entry): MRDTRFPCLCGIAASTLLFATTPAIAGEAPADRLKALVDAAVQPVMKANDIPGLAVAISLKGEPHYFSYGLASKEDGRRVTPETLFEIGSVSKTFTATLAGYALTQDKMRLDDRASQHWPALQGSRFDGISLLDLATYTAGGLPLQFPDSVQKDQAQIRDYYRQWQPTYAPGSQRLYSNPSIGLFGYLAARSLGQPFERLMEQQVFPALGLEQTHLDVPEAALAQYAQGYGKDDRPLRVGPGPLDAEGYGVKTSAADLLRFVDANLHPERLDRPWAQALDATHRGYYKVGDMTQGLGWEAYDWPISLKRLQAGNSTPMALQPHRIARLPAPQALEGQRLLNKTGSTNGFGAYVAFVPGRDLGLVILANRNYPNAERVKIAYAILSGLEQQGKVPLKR

O=C(O)c1cccc2c1OB(O)CC2 [Compound 5, 2-HYDROXY-3,4-DIHYDRO-1,2-BENZOXABORININE-8-CARBOXYLIC ACID]
AZT MPC4 CTX-M-15 KP1009 (KP1009 CTX-M-15): Y (Y = 5 μg/mL < MPC@4 ≤ 20 μg/mL)
TIG MPC4 CTX-M-14 KP1005 (KP1005 CTX-M-14; minimum BLI concentration inhibiting growth with tigemonam 4 μg/mL, tested up to 40 μg/mL): Z (Z = MPC@4 > 20 μg/mL)
AZT MPC4 TEM-10 ec302 (ec302 TEM-10): Z (Z = MPC@4 > 20 μg/mL)
AZT MPC4 ECL1002 (ECL1002): Z (Z = MPC@4 > 20 μg/mL)
AZT MPC4 CMY-6 EC1010 (EC1010 CMY-6; [10]): Y (Y = 5 μg/mL < MPC@4 ≤ 20 μg/mL)
AZT MPC4 KPC-2 KP1004 (KP1004 KPC-2 [1]; [10]): X (X = MPC@4 ≤ 5 μg/mL)
MPM MPC8 AB1054 OXA-23 (AB1054 OXA-23; minimum BLI concentration inhibiting growth with meropenem 8 μg/mL, tested up to 20 μg/mL): Y (Y = 5 μg/mL < MPC@1 ≤ 20 μg/mL)
BPM MPC1 KP1004 KPC-2 (KP1004 KPC-2 [2]): X (X = MPC@1 ≤ 5 μg/mL)
PAM1032/KPC-2 Biapenem MPC64 (PAM1032/KPC-2; BLI concentration decreasing biapenem MIC 64-fold, from 32 μg/ml to 0.5 μg/ml, efflux proficient strain): 20
MPM MPC8 AB1053 OXA-72 (AB1053 OXA-72): Z (Z = MPC@1 > 20 μg/mL)
AZT MPC4 SHV-5 ec308 (ec308 SHV-5): Z (Z = MPC@4 > 20 μg/mL)
AZT MPC4 SHV-12 KP1010 (KP1010 SHV-12; [10]): Y (Y = 5 μg/mL < MPC@4 ≤ 20 μg/mL)
BPM MPC1 OXA-48 KP1086 (KP1086 OXA-48): X (X = MPC@1 ≤ 5 μg/mL)
Ki (CTX-M-14, NCF), uM ([3]; purified CTX-M-14, nitrocefin (NCF) as reporter substrate): X (X = Ki ≤ 0.1 μM)
Ki (P99, NCF), uM ([4]; purified P99, nitrocefin (NCF) as reporter substrate): X (X = Ki ≤ 0.1 μM)
Ki [5]: < 100 nM
Ki (KPC-2, NCF), uM ([6]; purified KPC-2, nitrocefin (NCF) as reporter substrate): X (X = Ki ≤ 0.1 μM)
Ki (OXA-48, NCF), uM ([7]; purified OXA-48, nitrocefin (NCF) as reporter substrate): X (X = Ki ≤ 0.1 μM)
Ki [8]: 100 to 1000 nM
PAM1154/KPC-2 Biapenem MPC64 (PAM1154/KPC-2; BLI concentration decreasing biapenem MIC 64-fold, from 32 μg/ml to 0.5 μg/ml, efflux deficient strain): 0.3

O=C([O-])c1c(F)ccc2c1O[B-](O)(O)CC2.[Na+].[Na+] [Compound 8, DISODIUM; 8-FLUORO-4,4-DIHYDROXY-5-OXA-4-BORANUIDABICYCLO[4.4.0]DECA-1(6),7,9-TRIENE-7-CARBOXYLATE]
AZT MPC4 CTX-M-15 KP1009 (KP1009 CTX-M-15): X (X = MPC@4 ≤ 5 μg/mL)
TIG MPC4 CTX-M-14 KP1005 (KP1005 CTX-M-14): X (key: X = MPC@4 ≤ 5 μg/mL; Y = 5 μg/mL < MPC@4 ≤ 20 μg/mL; Z = MPC@4 > 20 μg/mL)
AZT MPC4 TEM-10 ec302 (ec302 TEM-10): X (X = MPC@4 ≤ 5 μg/mL)
AZT MPC4 ECL1002 (ECL1002): X (X = MPC@4 ≤ 5 μg/mL)
AZT MPC4 CMY-6 EC1010 (EC1010 CMY-6): X (key: X = MPC@4 ≤ 5 μg/mL; Y = 5 μg/mL < MPC@4 ≤ 20 μg/mL; Z = MPC@4 > 20 μg/mL)
AZT MPC4 KPC-2 KP1004 (KP1004 KPC-2 [1]): X (key: X = MPC@4 ≤ 5 μg/mL; Y = 5 μg/mL < MPC@4 ≤ 20 μg/mL; Z = MPC@4 > 20 μg/mL)
MPM MPC8 AB1054 OXA-23 (AB1054 OXA-23): X (key: X = MPC@1 ≤ 5 μg/mL; Y = 5 μg/mL < MPC@1 ≤ 20 μg/mL; Z = MPC@1 > 20 μg/mL)
BPM MPC1 KP1004 KPC-2 (KP1004 KPC-2 [2]): X (X = MPC@1 ≤ 5 μg/mL)
PAM1032/KPC-2 Biapenem MPC64 (PAM1032/KPC-2): 5
MPM MPC8 AB1053 OXA-72 (AB1053 OXA-72): X (X = MPC@1 ≤ 5 μg/mL)
AZT MPC4 SHV-5 ec308 (ec308 SHV-5): X (X = MPC@4 ≤ 5 μg/mL)
AZT MPC4 SHV-12 KP1010 (KP1010 SHV-12): X (key: X = MPC@4 ≤ 5 μg/mL; Y = 5 μg/mL < MPC@4 ≤ 20 μg/mL; Z = MPC@4 > 20 μg/mL)
BPM MPC1 OXA-48 KP1086 (KP1086 OXA-48): X (X = MPC@1 ≤ 5 μg/mL)
Ki (CTX-M-14, NCF), uM [3]: X (key: X = Ki ≤ 0.1 μM; Y = 0.1 μM < Ki ≤ 1 μM; Z = Ki > 1 μM)
Ki (P99, NCF), uM [4]: X (key: X = Ki ≤ 0.1 μM; Y = 0.1 μM < Ki ≤ 1 μM; Z = Ki > 1 μM)
Ki [9]: < 100 nM
Ki (KPC-2, NCF), uM [6]: X (key: X = Ki ≤ 0.1 μM; Y = 0.1 μM < Ki ≤ 1 μM; Z = Ki > 1 μM)
Ki (biochemical): < 100 nM
Ki (OXA-48, NCF), uM [7]: X (key: X = Ki ≤ 0.1 μM; Y = 0.1 μM < Ki ≤ 1 μM; Z = Ki > 1 μM)
PAM1154/KPC-2 Biapenem MPC64 (PAM1154/KPC-2): 0.6
